Columns and labels:
[1] = tested on: C2C12; assay: Cytotoxicity against mouse C2C12 cells assessed as reduction in cell viability by MTT assay; type: cell-based
[2] = Inhibition of BMP-induced mouse C2C12 cells osteoblastic differentiation assessed as reduction in alkaline phosphatase activity; type: functional, cell-based

IC50 [2] [µM] | Structure (SMILES) | IC50 [1] [µM]
51 | C=C1C[C@@H]2C[C@@](C)(CCC3=CC(=O)O[C@@]32OC)[C@H]1C | > 76
20 | COC1C=C(CC[C@]2(C)C(C)=CCC[C@H]2C)C(=O)O1 (stereo partly specified) | > 38
4.8 | CC1=CCC[C@@H](C)[C@]1(C)CCC1=CC(=O)OC1O (stereo partly specified) | > 40
